Results from patent publication US6337064B1, “Manganese chelates with high relaxivity in serum” (Dibra S.p.A., priority 1998, dated 2002).
Like-named read-outs stand apart in the source and are kept apart here. One block for each compound: values may come before it.

How the values were obtained:
[1] = Relaxivity in aqueous solution; type: physicochemical; settings: for Relaxivity r1, aqueous solution: 0.15 M NaCl aqueous solution, 20 MHz, 39° C.; for Relaxivity r1 5 MHz, aqueous solution / Relaxivity r1 10 MHz, aqueous solution: same experimental conditions as Table 1
Experimental: (§1) The relaxivity of the compounds of the invention was measured both in saline solution and in human serum, reconstituted from Seronorm^(R) Human (Nycomed Pharma), lyophilized human serum, and the resulting data are summarized in TABLES 1 and 2.
(§2) TABLE 1 reports the relativity values measured for some compounds of the invention at 20 MHz; the other experimental conditions used are detailed following the table itself.
(§3) TABLE 2 comprises the results obtained from tests carried out under the same experimental conditions as above and in which r1 and r2 relaxivities were measured in serum and in aqueous solution at lower fields, precisely at 5 and 10 MHz. Said data evidence the significant increase in relaxivity obtained in serum already at 5 MHz and are indicative of the potential advantageous use of the compounds of the invention in M.R.I. diagnostic imaging at low fields.

[2] = Relaxivity in human serum reconstituted from Seronorm Human; type: physicochemical; settings: for Relaxivity r1 5 MHz, Seronorm / Relaxivity r1 10 MHz, Seronorm: same experimental conditions as Table 1; for Relaxivity r1, Seronorm Human: calculated between 0 and 1 mM, 20 MHz, 39° C.
Experimental: as §1, §2, §3

[3] = in the presence of calcium and magnesium ions; MRM 1996, 35, 14-19; cited from earlier work
[4] = 40° C.; 20 MHz; aqueous solution containing 20 mol % calcium ascorbate and 3 eq. of Na^+; cited from earlier work
[5] = biodistribution study; Investigative Radiology 1994, 29(2), S249-S250; cited from earlier work

Compound: C[NH2+]C[C@H](O)[C@@H](O)[C@H](O)[C@H](O)CO.C[NH2+]C[C@H](O)[C@@H](O)[C@H](O)[C@H](O)CO.O=C([O-])CN(CCN(CC(=O)[O-])[C@H](Cc1ccccc1)C(=O)[O-])CC(=O)[O-].[Mn+2] [Example 1, Manganese complex of N-[2-[bis(carboxymethyl)-amino]ethyl]-N-(carboxymethyl)-D-phenylalanine salified with 1-deoxy-1-(methylamino)-D-glucitol (1:2)]
- Relaxivity r1, aqueous solution ([1]; pH 7.3): 2.93^6) mM^−1 s^−1
- Relaxivity r1 5 MHz, aqueous solution [1]: 4.3 mM⁻¹ s⁻¹
- Relaxivity r1 10 MHz, aqueous solution [1]: 3.7 mM⁻¹ s⁻¹
- Relaxivity r1 5 MHz, Seronorm [2]: 11.8 mM⁻¹ s⁻¹
- Relaxivity r1 10 MHz, Seronorm [2]: 12.8 mM⁻¹ s⁻¹
- Relaxivity r1, Seronorm Human [2]: 15^(7) mM^−1 s^−1

Compound: C[NH2+]C[C@H](O)[C@@H](O)[C@H](O)[C@H](O)CO.C[NH2+]C[C@H](O)[C@@H](O)[C@H](O)[C@H](O)CO.O=C([O-])CN(CCN(CC(=O)[O-])[C@@H](Cc1ccccc1)C(=O)[O-])[C@@H](Cc1ccccc1)C(=O)[O-].[Mn+2] [Example 2, Manganese complex of [N,N′-1,2-ethanediylbis [N-(carboxymethyl)-L-phenylalanine]] salified with 1-deoxy-1-(methylamino)-D-glucitol (1:2)]
- Relaxivity r1, aqueous solution ([1]; pH 7.3): 3.15^(6) mM^−1 s^−1
- Relaxivity r1 5 MHz, aqueous solution [1]: 4.5 mM⁻¹ s⁻¹
- Relaxivity r1 10 MHz, aqueous solution [1]: 3.9 mM⁻¹ s⁻¹
- Relaxivity r1 5 MHz, Seronorm [2]: 19.9 mM⁻¹ s⁻¹
- Relaxivity r1 10 MHz, Seronorm [2]: 26.1 mM⁻¹ s⁻¹
- Relaxivity r1, Seronorm Human [2]: 27^(7) mM^−1 s^−1

Compound: Cc1ncc(COP(=O)(O)O)c(CN(CCN(CC(=O)[O-])Cc2c(COP(=O)(O)O)cnc(C)c2O)CC(=O)[O-])c1O.[Mn+2].[Na].[Na].[Na] [Mn-DPDP]
- Stability of the complex in liver homogenate [3]: dissociation
- Relaxivity r1, aqueous solution [4]: 2.8^(5) L.mmol^−1.s^−1
- Stability of the complex in vivo [5]: this complex dissociates, releasing manganese which accumulates in liver, pancreas and kidneys

- Relaxivity r1, aqueous solution ([1]; pH 4): 6.59^(2) mM^−1 s^−1
- Relaxivity r1, Seronorm Human ([2]; pH 7.0): 53^(3) mM^−1 s^−1
Compound: [Cl][Mn][Cl] [MnCl2, reference compound]
